Where a name gives a salt, the structure may show the parent alone.

The term IC50 denotes the concentration that inhibits the measured activity by half.

Assay [1] relates to Cellular Class IIa HDAC activity. The assay is described as follows: Inhibition of cellular Class IIa HDAC activity; Cell (Lys-TFA) substrate, Jurkat E6-1 cells. Format: cell-based. The following applies: Boc-Lys(TFA)-AMC substrate. The text has this:
Example 29: Analysis of Inhibition of Cellular Class IIa HDAC Activity with Class IIa Histone Deacetylase (HDAC) Inhibitors; Cell (Lys-TFA) Substrate
(§1) The potency of Class IIa Histone Deacetylase (HDAC) inhibitors was quantified by measuring the cellular histone deacetylase enzymatic activity using the fluorogenic substrate, Boc-Lys(TFA)-AMC. After penetration in Jurkat E6-1 cells, the substrate was deacetylated to Boc-Lys-AMC. After cell lysis and cleavage by trypsin, the fluorophore AMC was released from the deacetylated substrate only. The fluorescence of the sample was directly related to the histone deacetylase activity in the sample.
Jurkat E6.1 Cell Culture and Plating.
(§2) Jurkat E6.1 cells were cultured according to standard cell culture protocols in Jurkat E6.1 Growth Media (RPMI without phenol red, 10% FBS, 10 mM HEPES, and 1 mM Sodium Pyruvate). Jurkat E6.1 cells were counted using a Coulter Counter and resuspended in Jurkat E6.1 growth media at a concentration of 75,000 cells/35 μL. 35 μL or 75,000 cells was seeded into Greiner microtitre assay plates. The plates were then incubated at 37° C. and 5% CO2 while other assay components were being prepared.
(§3) Serially Dilute HDAC Inhibitor Compounds.
(§4) Serial dilutions of the HDAC inhibitors and control reference compound (1-(5-(3-((4-(1,3,4-oxadiazol-2-yl)phenoxy)methyl)-1,2,4-oxadiazol-5-yl)thiophen-2-yl)-2,2,2-trifluoroethanone) were made by first resuspending the lyophilized compound to a final concentration of 10 mM in 100% DMSO. Stocks of 70 μL aliquots of the 10 mM compound in DMSO were prepared and stored at −20° C. From one stock aliquot of each tested compound and the reference compound, a 16-point serial dilution was prepared according to Table 1 using a 125 μL 16-channel Matrix multi-channel pipette.
(§5) 2 μL (200×) of each diluted solution and each control (full activity: 100% DMSO alone or full inhibition 1 mM) was stamped into V-bottom polypropylene 384-well compound plates using either the Bravo, Janus, or 12.5 μL 16-channel Matrix multi-channel pipette. Each well with the 200× compound solution was diluted 1:20 by the addition of 38 μL Jurkat assay buffer+DMSO (9.5% DMSO, RPMI without phenol red, 0.09% FBS, 9 mM Hepes, and 0.9 mM Sodium Pyruvate equilibrated to r.t.)
Prepare 5× (500 μM) Boc-Lys(TFA)-AMC Substrate.
(§6) 5× (500 μM) substrate was prepared just prior to the addition to the assay. The 5× substrate was prepared by diluting a 100 mM Boc-Lys(TFA)-AMC in DMSO solution 1:200 by adding it drop-wise to Jurkat assay medium (RPMI without phenol red, 0.1% FBS, 10 mM Hepes, and 1 mM Sodium Pyruvate equilibrated to 37° C.) while vortexing at slow speed to prevent precipitation.
(§7) 10 mL of 3× lysis buffer was prepared with 8.8 mL of 3× stock lysis buffer (50 mM Tris-HCl, pH 8.0, 137 mM NaCl, 2.7 mM KCl, 1 mM MgCl2, 1% Nonidet P40 Substitute equilibrated to r.t.) and 1.2 mL of 3 mg/mL Trypsin equilibrated to r.t.
(§8) 5 μL of each solution of 1:20 diluted compound from above was transferred to the Greiner microtitre assay plates with 75,000 cells/well using the Bravo. Cells were then incubated for 2 hours at 37° C. and 5% CO2. The assay was then started by adding 10 μL of 5× (500 μM) substrate to the assay plate using either the Bravo or 16-channel Matrix multi-channel pipette. The cells were then incubated for 3 hours at 37° C. and 5% CO2. Next, 25 μL of 3× lysis buffer was added to each well using either the 125 μL 16 channel pipette or the Bravo. The assay plate was then incubated overnight (15-16 hours) at 37° C. and 5% CO2. The following day, the plates were shaken on an orbital shaker for 1 minute at 900 rpm. Finally the top read fluorescence (Excitation: 355 nm, Emission: 460 nm) was measured using PerkinElmer EnVision.

The target of assay [2] is human catalytic domain HDAC4 protein (amino acids 648-1032) (Homo sapiens (Human), UniProt P56524). The assay is described as follows: HDAC4 catalytic domain enzymatic activity, fluorogenic substrate Boc-Lys(TFA)-AMC. Particulars: read-out: HDAC4 Biochemical IC50.
Chain of human catalytic domain HDAC4 protein (amino acids 648-1032) (P56524 648-1032): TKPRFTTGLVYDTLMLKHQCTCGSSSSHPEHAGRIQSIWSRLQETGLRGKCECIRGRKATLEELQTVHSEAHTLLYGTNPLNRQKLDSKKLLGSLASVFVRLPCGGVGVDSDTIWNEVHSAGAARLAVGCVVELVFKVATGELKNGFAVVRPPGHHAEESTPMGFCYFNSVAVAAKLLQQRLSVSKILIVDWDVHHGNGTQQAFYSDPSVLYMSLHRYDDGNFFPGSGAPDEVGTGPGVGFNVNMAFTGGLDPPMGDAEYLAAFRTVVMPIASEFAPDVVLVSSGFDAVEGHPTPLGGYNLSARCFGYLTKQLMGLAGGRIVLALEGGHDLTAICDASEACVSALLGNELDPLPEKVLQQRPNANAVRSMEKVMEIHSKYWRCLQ
Description: Example 25: Analysis of Inhibition of HDAC4 with Class IIa Histone Deacetylase (HDAC) Inhibitors
The potency of Class IIa Histone Deacetylase (HDAC) inhibitors was quantified by measuring the Histone Deacetylase 4 (HDAC4) catalytic domain enzymatic activity using the fluorogenic substrate, Boc-Lys(TFA)-AMC. The substrate was deacetylated to Boc-Lys-AMC by HDAC4. […] The fluorescence of the sample was directly related to the histone deacetylase activity in the sample.
as §3
as §4, with “dimethyl sulfoxide (DMSO).” for “DMSO.”, “60” for “70”, “pipette (Matrix Technologies Ltd).” for “pipette.”
2 μL (200×) of each diluted solution and each control (full activity: 100% DMSO alone or full inhibition 1 mM) was stamped into V-bottomed polypropylene 384-well compound plates using either the Bravo (384-well head from Agilent) or 12.5 μL 16-channel Matrix multi-channel pipette (Matrix Technologies Ltd). Each well with the 200× compound solution was diluted 1:20 by the addition of 38 μL assay buffer+DMSO (10.5% DMSO, 45 mM Tris-HCl, 123 mM NaCl, 2.4 mM KCl, and 0.9 mM MgCl2 at pH 8.0 and equilibrated to r.t.).
Prepare HDAC4 Catalytic Domain Enzyme (0.2 μg/mL).
The HDAC4 catalytic domain enzyme was human catalytic domain HDAC4 protein (amino acids 648-1032) with a C-terminal 6× histidine tag, produced by BioFocus. A working solution of enzyme was prepared from a […] stock aliquot of HDAC4 catalytic domain (thawed on ice) diluted to 0.2 μg/mL with assay buffer (50 mM Tris-HCl, 137 mM NaCl, 2.7 mM KCl, and 1 mM MgCl2 at pH 8 and equilibrated to r.t.) just prior to the addition of the enzyme to the assay.
Prepare 5× (50 μM) Boc-Lys(TFA)-AMC Substrate.
5× (50 μM) substrate was prepared just prior to the addition to the assay. A 1 mM substrate stock was made by diluting a 100 mM Boc-Lys(TFA)-AMC in DMSO solution 1:100 by adding it drop-wise to assay buffer (equilibrated to r.t.) while vortexing at slow speed to prevent precipitation. The 5× substrate was prepared by diluting the 1 mM substrate solution 1:20 by adding it drop-wise to assay buffer (equilibrated to r.t.) while vortexing at slow speed to prevent precipitation.
Prepare 3× (30 μM) Developer/Stop Solution.
3× (30 μM) Developer/Stop Solution was prepared just prior to addition to the plate by diluting a stock solution of 10 mM reference compound 1:333 in 25 mg/mL trypsin (PAA Laboratories Ltd.) equilibrated to r.t.
5 μL of each solution of 1:20 diluted compound from above was transferred to a clear bottomed, black, 384-well assay plate using the Bravo or the Janus (384-well MDT head from Perkin Elmer). Using a 16-channel Matrix multi-channel pipette, 35 μL of the working solution of HDAC4 catalytic domain enzyme (0.2 μg/mL in assay buffer) was transferred to the assay plate. The assay was then started by adding 10 μL of 5× (50 μM) substrate to the assay plates using either the Bravo, Janus or 16-channel Matrix multi-channel pipette. The assay plate was then shaken for two minutes on an orbital shaker at 900 rpm (rotations per minute). Next the plate was incubated for 15 minutes at 37° C. The reaction was stopped by adding 25 μL of 3× (30 μM) developer/stop solution to the assay plates using either the Bravo, Janus or a 16-channel Matrix multi-channel pipette. Assay plates were then shaken for 5 minutes on an orbital shaker at 1200 rpm. Next, the assay plates were incubated at 37° C. for 1 hour in a tissue culture incubator. […]

Assay [3] has as its system Cellular Class I HDAC activity. As to the kind of experiment: Inhibition of cellular Class I HDAC activity; Cell (Lys-Ac) substrate, Jurkat E6-1 cells. Format: cell-based. The following applies: Boc-Lys(Ac)-AMC substrate.
Description: as §1, §2, §4, §5, §6, §7, §8
Example 30: Analysis of Inhibition of Cellular Class I HDAC Activity with Class IIa Histone Deacetylase (HDAC) Inhibitors; Cell (Lys-Ac) Substrate
The Class I HDAC activity of Class IIa Histone Deacetylase (HDAC) inhibitors was quantified by measuring the cellular histone deacetylase enzymatic activity using the fluorogenic substrate, Boc-Lys(Ac)-AMC. This was performed according to the procedure in Example 29, using Boc-Lys(Ac)-AMC substrate in place of Boc-Lys(TFA)-AMC.

With `C[C@H](CN1CCCC2(CC2)C1)NC(=O)c1ccc(-c2noc(C(F)(F)F)n2)cc1` [Example 11, (R)—N-(1-(5-Azaspiro[2.5]octan-5-yl)propan-2-yl)-4-(5-(trifluoromethyl)-1,2,4-oxadiazol-3-yl)benzamide], the IC50 in assay [1] stood at 9 nM; in assay [2], 3 nM; in assay [3], 970 nM.

With `C[C@H](CN1CCC2(CC1)CC2)NC(=O)c1ccc(-c2noc(C(F)(F)F)n2)cc1` [Example 12, (R)—N-(1-(6-Azaspiro[2.5]octan-6-yl)propan-2-yl)-4-(5-(trifluoromethyl)-1,2,4-oxadiazol-3-yl)benzamide], the IC50 in assay [1] amounted to 58 nM; in assay [2] it was 30 nM; in assay [3], 4000 nM.

With `C[C@H](CN1CCCCCC1)NC(=O)c1ccc(-c2noc(C(F)(F)F)n2)cc1` [Example 13, (R)—N-(1-(Azepan-1-yl)propan-2-yl)-4-(5-(trifluoromethyl)-1,2,4-oxadiazol-3-yl)benzamide], the IC50 in assay [1] amounted to 30 nM; in assay [2], 11 nM; in assay [3] it was 1700 nM.

As to `C[C@H](CN1CCC12CCC2)NC(=O)c1ccc(-c2noc(C(F)(F)F)n2)cc1` [Example 14, (R)—N-(1-(1-Azaspiro[3.3]heptan-1-yl)propan-2-yl)-4-(5-(trifluoromethyl)-1,2,4-oxadiazol-3-yl)benzamide], the IC50 in assay [1] came to 180 nM; in assay [2] it was 16 nM; in assay [3], 7700 nM.

Take `C[C@H](CN1CCC2(CC2)C1)NC(=O)c1ccc(-c2noc(C(F)(F)F)n2)cc1` [Example 15, (R)—N-(1-(5-Azaspiro[2.4]heptan-5-yl)propan-2-yl)-4-(5-(trifluoromethyl)-1,2,4-oxadiazol-3-yl)benzamide]: the results for the 50% inhibitory concentration (IC50) in assay [1], in assay [2] and in assay [3] were 69 nM, 8 nM and 5100 nM, respectively.

Regarding `C[C@H](CN1CC2CCC(C2)C1)NC(=O)c1ccc(-c2noc(C(F)(F)F)n2)cc1` [Example 16, N-((2R)-1-(3-Azabicyclo[3.2.1]octan-3-yl)propan-2-yl)-4-(5-(trifluoromethyl)-1,2,4-oxadiazol-3-yl)benzamide], the IC50 in assay [1] was 12 nM; in assay [2], 7 nM; in assay [3] it was 890 nM.

For the compound `C[C@H](CN1CC2CCCC2C1)NC(=O)c1ccc(-c2noc(C(F)(F)F)n2)cc1` (stereo partly drawn) [Example 17, 2-((R)-2-(4-(5-(Trifluoromethyl)-1,2,4-oxadiazol-3-yl)benzamido)propyl)octahydrocyclopenta[c]pyrrol-2-ium formate], the IC50 in assay [1] was found to be 28 nM; in assay [2], 12 nM; in assay [3], 690 nM.

On to `C[C@H](CN1CCc2ccncc2C1)NC(=O)c1ccc(-c2noc(C(F)(F)F)n2)cc1` [Example 18, (R)—N-(1-(3,4-dihydro-2,7-naphthyridin-2(1H)-yl)propan-2-yl)-4-(5-(trifluoromethyl)-1,2,4-oxadiazol-3-yl)benzamide], for which the concentration for half-maximal inhibition (IC50) in assay [1] was determined as 190 nM; in assay [2], 6 nM; in assay [3], 12700 nM.

Take `C[C@H](CN1CC2CCC2C1)NC(=O)c1ccc(-c2noc(C(F)(F)F)n2)cc1` (stereo partly drawn) [Example 19, N-((2R)-1-(3-Azabicyclo[3.2.0]heptan-3-yl)propan-2-yl)-4-(5-(trifluoromethyl)-1,2,4-oxadiazol-3-yl)benzamide]: the IC50 in assay [1] turned out to be 9 nM; in assay [2], 4 nM; in assay [3], 1100 nM.

Consider `C[C@H](CN1CC2C(C1)C2(C)C)NC(=O)c1ccc(-c2noc(C(F)(F)F)n2)cc1` (stereo partly drawn) [Example 22, N-((2R)-1-(6,6-Dimethyl-3-azabicyclo[3.1.0]hexan-3-yl)propan-2-yl)-4-(5-(trifluoromethyl)-1,2,4-oxadiazol-3-yl)benzamide], for which the IC50 in assay [1] was 86 nM; in assay [2], 20 nM; in assay [3] it was 6100 nM.

Take `C[C@H](CN1CCC[C@@H]1C)NC(=O)c1ccc(-c2noc(C(F)(F)F)n2)c(F)c1` [Example 23, (2S)-1-((R)-2-(3-Fluoro-4-(5-(trifluoromethyl)-1,2,4-oxadiazol-3-yl)benzamido)propyl)-2-methylpyrrolidin-1-ium formate]: the IC50 in assay [1] worked out at 72 nM; in assay [2], 9 nM; in assay [3], 21400 nM.

The values above are taken from patent publication US10053434B2, “Histone deacetylase inhibitors and compositions and methods of use thereof” (CHDI Foundation, Inc., priority 2015, dated 2018).
